# Experimental data reported in the supplement of paper PMC10307832.
# Experiments:
# Assay in all cases: relative viability (nuclei count vs DMSO), 5 days (fraction); higher = more cells survive
# AZD8055 + Pemetrexed = compound: COc1ccc(-c2ccc3c(N4CCOC[C@@H]4C)nc(N4CCOC[C@@H]4C)nc3n2)cc1CO [AZD8055] + Nc1nc2[nH]cc(CCc3ccc(C(=O)N[C@@H](CCC(=O)O)C(=O)O)cc3)c2c(=O)[nH]1 [Pemetrexed] (partner 0.2 µM)
# Summary of the method: (§1)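 Lung cancer cell lines in 1536-well plates were dosed by pin tool the day after seeding, either with one drug alone or with a fixed anchor-drug dose plus five library-drug doses (not always all listed) in √10 steps. After 5 days, cells were fixed and their nuclei stained in one step (final 0.05% Triton X-100, 1% formaldehyde, 1 ug/ml Hoechst), then counted on 4× images. Relative viability is the nuclei count in treated wells divided by that in vehicle wells. Values are medians of duplicate plates.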
# AZD8055 + Dasatinib = compound: COc1ccc(-c2ccc3c(N4CCOC[C@@H]4C)nc(N4CCOC[C@@H]4C)nc3n2)cc1CO [AZD8055] + Cc1nc(Nc2ncc(C(=O)Nc3c(C)cccc3Cl)s2)cc(N2CCN(CCO)CC2)n1 [Dasatinib] (partner 0.075 µM)
# Summary of the method: as §1
# AZD8055 + Lapatinib = compound: COc1ccc(-c2ccc3c(N4CCOC[C@@H]4C)nc(N4CCOC[C@@H]4C)nc3n2)cc1CO [AZD8055] + CS(=O)(=O)CCNCc1ccc(-c2ccc3ncnc(Nc4ccc(OCc5cccc(F)c5)c(Cl)c4)c3c2)o1 [Lapatinib] (partner 2 µM)
# Summary of the method: as §1
# AZD8055 + Crizotinib = compound: COc1ccc(-c2ccc3c(N4CCOC[C@@H]4C)nc(N4CCOC[C@@H]4C)nc3n2)cc1CO [AZD8055] + C[C@@H](Oc1cc(-c2cnn(C3CCNCC3)c2)cnc1N)c1c(Cl)ccc(F)c1Cl [Crizotinib] (partner 1 µM)
# Summary of the method: as §1
Cell Line,relative viability (AZD8055 + Pemetrexed; first compound 0.01 µM),relative viability (AZD8055 + Pemetrexed; first compound 0.03162 µM),relative viability (AZD8055 + Pemetrexed; first compound 0.1 µM),relative viability (AZD8055 + Pemetrexed; first compound 0.3162 µM),relative viability (AZD8055 + Pemetrexed; first compound 1 µM),relative viability (AZD8055 + Dasatinib; first compound 0.01 µM),relative viability (AZD8055 + Dasatinib; first compound 0.03162 µM),relative viability (AZD8055 + Dasatinib; first compound 0.1 µM),relative viability (AZD8055 + Dasatinib; first compound 0.3162 µM),relative viability (AZD8055 + Dasatinib; first compound 1 µM),relative viability (AZD8055 + Lapatinib; first compound 0.01 µM),relative viability (AZD8055 + Lapatinib; first compound 0.03162 µM),relative viability (AZD8055 + Lapatinib; first compound 0.1 µM),relative viability (AZD8055 + Lapatinib; first compound 0.3162 µM),relative viability (AZD8055 + Lapatinib; first compound 1 µM),relative viability (AZD8055 + Crizotinib; first compound 0.01 µM),relative viability (AZD8055 + Crizotinib; first compound 0.03162 µM),relative viability (AZD8055 + Crizotinib; first compound 0.1 µM),relative viability (AZD8055 + Crizotinib; first compound 0.3162 µM),relative viability (AZD8055 + Crizotinib; first compound 1 µM)
NCI-H1648,0.942,0.675,0.641,0.324,0.285,–,–,–,–,–,–,–,–,–,–,–,–,–,–,–
SW 900,0.493,0.469,0.512,0.353,0.241,0.622,0.691,0.535,0.177,0.184,–,–,–,–,–,–,–,–,–,–
ABC-1,–,–,–,–,–,0.692,0.548,0.526,0.219,0.3,1.2,0.939,1.2,0.652,0.611,1.09,1.04,0.812,0.602,0.479
NCI-H1793,0.721,0.376,0.268,0.184,0.225,0.356,0.178,0.192,0.148,0.11,0.422,0.346,0.305,0.308,0.276,–,–,–,–,–
NCI-H1395,0.767,0.547,0.735,0.385,0.356,0.405,0.376,0.37,0.31,0.292,0.939,0.776,0.771,0.616,0.462,–,–,–,–,–
NCI-H1299,–,–,–,–,–,–,–,–,–,–,0.974,1.07,0.98,0.758,0.439,0.998,0.995,0.968,0.891,0.51
ChaGo-K-1,0.26,0.262,0.256,0.251,0.271,0.614,0.537,0.433,0.375,0.352,–,–,–,–,–,1.28,1.21,1.07,1.18,0.887
NCI-H522,0.992,0.943,0.962,0.518,0.467,0.864,0.831,0.907,0.625,0.535,–,–,–,–,–,–,–,–,–,–
A549,–,–,–,–,–,–,–,–,–,–,0.801,0.651,0.404,0.307,0.122,0.674,0.689,0.324,0.231,0.0846
IA-LM,–,–,–,–,–,–,–,–,–,–,0.802,0.319,0.216,0.132,0.112,0.923,0.472,0.347,0.0713,0.105
LCLC-103H,0.499,0.438,0.54,0.49,0.392,0.412,0.315,0.379,0.2,0.211,–,–,–,–,–,1.04,0.918,0.719,0.807,0.484
Calu-6,–,–,–,–,–,–,–,–,–,–,1.22,0.926,0.816,0.718,0.485,1.03,0.699,0.556,0.42,0.322
